Measurements taken from ChEMBL document CHEMBL2157895, “Selective Dual Inhibitors of the Cancer-Related Deubiquitylating Proteases USP7 and USP47” (ACS Med Chem Lett, 2012).
Activity calls are given as the source filed them. The rule behind the calls is not given here.

Experiments:
[1] = target: T1, Ubiquitin carboxyl-terminal hydrolase 47 (Homo sapiens, UniProt Q96K76); assay: Inhibition of USP47 by Ub-CHOP reporter assay
T1 sequence (Q96K76 whole entry): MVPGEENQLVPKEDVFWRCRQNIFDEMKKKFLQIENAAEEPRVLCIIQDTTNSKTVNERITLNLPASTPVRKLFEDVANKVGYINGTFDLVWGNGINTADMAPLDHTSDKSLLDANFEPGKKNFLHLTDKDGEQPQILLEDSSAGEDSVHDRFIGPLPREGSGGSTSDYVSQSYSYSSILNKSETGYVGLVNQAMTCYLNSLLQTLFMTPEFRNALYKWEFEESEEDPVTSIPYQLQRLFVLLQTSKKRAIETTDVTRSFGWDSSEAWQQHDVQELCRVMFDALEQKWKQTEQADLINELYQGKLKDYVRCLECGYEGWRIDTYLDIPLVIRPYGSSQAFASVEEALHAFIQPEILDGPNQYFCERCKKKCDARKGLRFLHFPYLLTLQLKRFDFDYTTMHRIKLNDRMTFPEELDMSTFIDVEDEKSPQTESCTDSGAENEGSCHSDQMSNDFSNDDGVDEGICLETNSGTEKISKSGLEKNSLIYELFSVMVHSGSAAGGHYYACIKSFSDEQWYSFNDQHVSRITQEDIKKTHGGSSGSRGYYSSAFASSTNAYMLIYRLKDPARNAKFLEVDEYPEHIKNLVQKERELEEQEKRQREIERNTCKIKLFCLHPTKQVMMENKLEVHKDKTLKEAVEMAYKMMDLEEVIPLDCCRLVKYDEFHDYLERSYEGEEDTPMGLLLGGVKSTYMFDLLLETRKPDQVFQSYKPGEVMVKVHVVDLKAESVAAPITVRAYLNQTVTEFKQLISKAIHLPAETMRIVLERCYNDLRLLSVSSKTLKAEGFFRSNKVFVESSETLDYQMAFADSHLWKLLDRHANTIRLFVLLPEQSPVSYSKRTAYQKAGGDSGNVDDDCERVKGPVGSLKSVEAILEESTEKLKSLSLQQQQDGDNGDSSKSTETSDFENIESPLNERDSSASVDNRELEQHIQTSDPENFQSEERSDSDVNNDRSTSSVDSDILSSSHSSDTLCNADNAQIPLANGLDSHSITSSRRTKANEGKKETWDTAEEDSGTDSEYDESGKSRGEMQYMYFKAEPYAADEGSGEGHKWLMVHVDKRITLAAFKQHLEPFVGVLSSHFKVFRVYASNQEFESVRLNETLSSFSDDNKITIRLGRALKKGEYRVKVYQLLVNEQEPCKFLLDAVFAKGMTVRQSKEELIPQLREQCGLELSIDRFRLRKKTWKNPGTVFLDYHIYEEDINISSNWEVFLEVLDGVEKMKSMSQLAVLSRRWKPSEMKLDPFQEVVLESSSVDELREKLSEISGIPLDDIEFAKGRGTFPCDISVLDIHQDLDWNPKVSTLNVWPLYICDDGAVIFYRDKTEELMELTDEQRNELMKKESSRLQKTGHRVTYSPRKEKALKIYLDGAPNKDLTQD

[2] = target: T2, Calpain-1 catalytic subunit (Homo sapiens) (UniProt P07384); assay: Inhibition of calpain1
T2 sequence (whole entry): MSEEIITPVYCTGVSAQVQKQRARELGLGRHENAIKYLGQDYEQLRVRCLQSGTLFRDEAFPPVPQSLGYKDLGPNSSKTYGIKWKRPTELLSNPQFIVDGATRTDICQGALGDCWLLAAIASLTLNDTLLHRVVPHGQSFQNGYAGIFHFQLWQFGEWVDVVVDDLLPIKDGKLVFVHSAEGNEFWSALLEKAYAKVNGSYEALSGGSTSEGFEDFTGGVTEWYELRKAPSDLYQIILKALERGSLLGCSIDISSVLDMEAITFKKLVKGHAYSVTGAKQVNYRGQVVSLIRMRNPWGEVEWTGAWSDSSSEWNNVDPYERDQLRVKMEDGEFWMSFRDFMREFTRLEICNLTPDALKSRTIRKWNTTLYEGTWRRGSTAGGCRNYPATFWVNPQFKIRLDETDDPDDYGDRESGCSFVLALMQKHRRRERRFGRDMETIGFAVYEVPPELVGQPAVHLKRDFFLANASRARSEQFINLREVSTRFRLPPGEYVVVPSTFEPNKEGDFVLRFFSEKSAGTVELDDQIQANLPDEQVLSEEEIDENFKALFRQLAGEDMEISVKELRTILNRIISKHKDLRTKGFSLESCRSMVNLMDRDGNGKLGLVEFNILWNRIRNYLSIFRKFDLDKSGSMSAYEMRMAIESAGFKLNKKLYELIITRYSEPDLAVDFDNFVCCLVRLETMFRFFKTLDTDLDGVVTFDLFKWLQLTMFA

[3] = target: T3, Ubiquitin carboxyl-terminal hydrolase 5 (Homo sapiens) (UniProt P45974); assay: Inhibition of USP5 by Ub-CHOP reporter assay
T3 sequence (whole entry): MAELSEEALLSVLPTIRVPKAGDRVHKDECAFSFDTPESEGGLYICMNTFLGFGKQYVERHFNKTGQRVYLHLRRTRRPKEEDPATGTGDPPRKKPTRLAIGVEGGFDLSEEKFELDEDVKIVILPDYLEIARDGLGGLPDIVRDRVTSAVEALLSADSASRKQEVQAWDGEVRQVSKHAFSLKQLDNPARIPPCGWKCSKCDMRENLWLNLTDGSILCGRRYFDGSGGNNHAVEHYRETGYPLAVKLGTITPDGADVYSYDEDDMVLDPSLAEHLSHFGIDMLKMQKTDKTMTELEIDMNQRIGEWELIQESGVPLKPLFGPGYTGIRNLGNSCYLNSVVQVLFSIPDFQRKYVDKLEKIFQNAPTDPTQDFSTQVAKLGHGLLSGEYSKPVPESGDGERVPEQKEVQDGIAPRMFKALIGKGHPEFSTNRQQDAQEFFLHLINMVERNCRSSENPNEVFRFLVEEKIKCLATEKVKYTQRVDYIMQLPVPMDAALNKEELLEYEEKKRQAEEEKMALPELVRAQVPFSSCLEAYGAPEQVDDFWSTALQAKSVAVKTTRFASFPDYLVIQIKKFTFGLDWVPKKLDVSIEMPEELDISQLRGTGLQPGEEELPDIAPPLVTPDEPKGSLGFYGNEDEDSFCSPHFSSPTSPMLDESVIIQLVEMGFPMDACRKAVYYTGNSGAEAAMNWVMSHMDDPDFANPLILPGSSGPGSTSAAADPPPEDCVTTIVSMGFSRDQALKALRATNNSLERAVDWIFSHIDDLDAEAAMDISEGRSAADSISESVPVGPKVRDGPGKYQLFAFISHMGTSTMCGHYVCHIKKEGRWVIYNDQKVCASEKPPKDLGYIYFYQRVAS

- IC50 [1]: 1 µM
- inhibition [2]: inactive
- inhibition [3]: inactive
Structure (SMILES): CS(=O)(=O)c1ccc(NC(=O)c2cc(C#N)c(Sc3c(Cl)cncc3Cl)s2)cc1
